According to ChEMBL document CHEMBL3745685, “An appraisal on recent medicinal perspective of curcumin degradant: Dehydrozingerone (DZG)” (Bioorg Med Chem, 2016):
Values after ≈ are worked out from the molar mass of the structure shown.

Experiments:
[1] = Antioxidant activity assessed as DPPH radical scavenging activity; format: physicochemical
NCI/ADR-RES = assay: Cytotoxicity against human multidrug resistant NCI/ADR-RES cells overexpressing P-gp assessed as reduction in cell viability by MTT assay; format: functional, cell-based
[2] = Cytotoxicity against human OVCAR8 cells assessed as reduction in cell viability by MTT assay; format: functional, cell-based; details: OVCAR-8
OVCAR-8 = assay: Resistance factor, ratio of IC50 for human multidrug resistant NCI/ADR-RES cells to IC50 for human OVCAR8 cells; format: functional
[3] = Antioxidant activity assessed as ABTS free radical scavenging activity; format: physicochemical
Raji [4] = assay: Cytotoxicity against human Raji cells expressing EBV-EA assessed as inhibition of TPA-induced EBV-EA activation at 1000 molar ratio after 48 hrs by trypan blue staining based immunofluorescence method relative to TPA; format: functional
Raji [5] = assay: Cytotoxicity against human Raji cells expressing EBV-EA assessed as inhibition of TPA-induced EBV-EA activation at 38 molar ratio after 48 hrs by trypan blue staining based immunofluorescence method relative to TPA; format: functional
[6] = Antiproliferative activity against human MM1S cells assessed as growth inhibition at 10 uM after 48 hrs by MTT assay relative to control; format: functional; details: MM1.S, read-out: GI
[7] = Antiproliferative activity against human RPMI8226 cells assessed as growth inhibition at 10 uM after 48 hrs by MTT assay relative to control; format: functional; details: RPMI-8226, 48 h, read-out: GI
[8] = Antiproliferative activity against human U266 cells assessed as growth inhibition at 10 uM after 48 hrs by MTT assay relative to control; format: functional; details: U-266, 48 h, read-out: GI
Penicillium chrysogenum [9] = assay: Antifungal activity against Penicillium chrysogenum MTCC 616 assessed as growth inhibition after 5 to 7 days by broth dilution method; format: functional
Raji [10] = assay: Cytotoxicity against human Raji cells expressing EBV-EA assessed as inhibition of TPA-induced EBV-EA activation after 48 hrs by trypan blue staining based immunofluorescence method relative to TPA; format: functional, cell-based
Rhizoctonia solani = assay: Antifungal activity against Rhizoctonia solani Kuhn assessed as growth inhibition after 2 to 3 days by poisoned food method; format: functional, organism-based
[11] = Antioxidant activity assessed as DPPH radical scavenging activity incubated for 20 mins by spectrophotometry analysis; format: physicochemical
Aspergillus oryzae [12] = assay: Fungicidal activity against Aspergillus oryzae MTCC 262 after 5 to 7 days by agar well diffusion method; format: functional
Aspergillus flavus [13] = assay: Fungicidal activity against Aspergillus flavus MTCC 277 after 5 to 7 days by agar well diffusion method; format: functional
Aspergillus niger [14] = assay: Fungicidal activity against Aspergillus niger MTCC 218 after 5 to 7 days by agar well diffusion method; format: functional
Aspergillus ochraceus [15] = assay: Fungicidal activity against Aspergillus ochraceus MTCC 4643 after 5 to 7 days by agar well diffusion method; format: functional
Fusarium oxysporum [16] = assay: Fungicidal activity against Fusarium oxysporum MTCC 1755 after 5 to 7 days by agar well diffusion method; format: functional
Penicillium chrysogenum [17] = assay: Fungicidal activity against Penicillium chrysogenum MTCC 616 after 5 to 7 days by agar well diffusion method; format: functional
Aspergillus oryzae [18] = assay: Antifungal activity against Aspergillus oryzae MTCC 262 assessed as growth inhibition after 5 to 7 days by broth dilution method; format: functional
Aspergillus flavus [19] = assay: Antifungal activity against Aspergillus flavus MTCC 277 assessed as growth inhibition after 5 to 7 days by broth dilution method; format: functional
Aspergillus niger [20] = assay: Antifungal activity against Aspergillus niger MTCC 218 assessed as growth inhibition after 5 to 7 days by broth dilution method; format: functional
Aspergillus ochraceus [21] = assay: Antifungal activity against Aspergillus ochraceus MTCC 4643 assessed as growth inhibition after 5 to 7 days by broth dilution method; format: functional
Fusarium oxysporum [22] = assay: Antifungal activity against Fusarium oxysporum MTCC 1755 assessed as growth inhibition after 5 to 7 days by broth dilution method; format: functional
Brain = assay: Antioxidant activity in Wistar rat brain homogenate assessed as inhibition of Fe(II)-induced lipid peroxidation; format: functional, tissue-based
Raji [23] = assay: Cytotoxicity against human Raji cells expressing EBV-EA assessed as inhibition of TPA-induced EBV-EA activation at 500 molar ratio after 48 hrs by trypan blue staining based immunofluorescence method relative to TPA; format: functional
[24] = Potency index, ratio of alpha-tocopherol IC0.2 to compound IC0.2 for antioxidant activity by DPPH assay
Spilarctia obliqua = assay: Insecticidal activity against third-instar larval stage of Spilosoma obliqua Walker assessed as growth inhibition after 24 hrs by leaf disc method; format: functional, organism-based
Rattus norvegicus = assay: Antiinflammatory activity in rat assessed as inhibition of carrageenan-induced paw edema relative to control; format: functional
Mus musculus = assay: Analgesic activity in albino mouse assessed as inhibition of acetic acid-induced writhing response at 1 mmol/kg relative to control; format: functional
Raji [25] = assay: Cytotoxicity against human Raji cells expressing EBV-EA assessed as inhibition of TPA-induced EBV-EA activation at 100 molar ratio after 48 hrs by trypan blue staining based immunofluorescence method relative to TPA; format: functional
[26] = Potency index, ratio of ascorbic acid IC0.2 to compound IC0.2 for antioxidant activity by DPPH assay
Raji [27] = assay: Cytotoxicity against human Raji cells expressing EBV-EA assessed as inhibition of TPA-induced EBV-EA activation at 10 molar ratio after 48 hrs by trypan blue staining based immunofluorescence method relative to TPA; format: functional

For `O=C1O[C@H]([C@@H](O)CO)C(O)=C1O` [ASCORBIC ACID], the IC0.2 [1] was 23.7 µM.
For `COc1cc(/C=C/C(=O)/C=C/c2nc3c(C)cccc3n2C)ccc1O`, the IC50 (NCI/ADR-RES) was 23.2 µM, the IC50 [2] was 0.7 µM and the “Ratio IC50” value (OVCAR-8) was 33.1.
For `COc1cc(C(CC(C)=O)[Se]c2ccccc2)ccc1O` (stereo not drawn), the IC50 [3] was 8 µM.
For `COc1cc(/C=C/C(C)=O)ccc1OCC=C(C)C`, the “inhibition (INH)” value (Raji [4]) was 100%.
In the case of `C/C=C/c1ccc(O)c(OC)c1`, the “inhibition (INH)” value (Raji [5]) is reported as 50%.
In the case of `COc1ccc(/C=C/C(=O)/C=C/c2nc3cc(C)ccc3n2C)cc1O`, the “Ratio IC50” value (OVCAR-8) is reported as 1.7.
With `COc1cc(/C=C/C(=O)C(=Cc2ccc3c(c2)C(=O)N(C2CCC(=O)NC2=O)C3=O)C(=O)/C=C/c2ccc(O)c(OC)c2)ccc1O` (stereo not drawn) the inhibition of growth at 10 µM [6] was ≥ 90%, the inhibition of growth at 10 µM [7] was ≥ 90% and the inhibition of growth at 10 µM [8] was ≥ 90%.
With `COc1cc(/C=C/C(C)=O)ccc1O` [DEHYDROZINGERONE] the MIC (Penicillium chrysogenum [9]) was 755 µM (≈ 145 µg/mL), the IC50 [3] was 8 µM and the IC50 (Raji [10]) was 95 molar ratio. It also gave an EC50 (Rhizoctonia solani) of 86.5 µg/mL (≈ 0.45 mM), an IC50 [11] of 300 µM and an MFC (Aspergillus oryzae [12]) of 880 µM (≈ 169 µg/mL). For the same compound, the MFC (Aspergillus flavus [13]) was 880 µM (≈ 169 µg/mL), the MFC (Aspergillus niger [14]) was 880 µM (≈ 169 µg/mL) and the MFC (Aspergillus ochraceus [15]) was 880 µM (≈ 169 µg/mL). For the same compound, the MFC (Fusarium oxysporum [16]) was 880 µM (≈ 169 µg/mL), the MFC (Penicillium chrysogenum [17]) was 880 µM (≈ 169 µg/mL) and the MIC (Aspergillus oryzae [18]) was 755 µM (≈ 145 µg/mL). The MIC (Aspergillus flavus [19]) was 755 µM (≈ 145 µg/mL), the MIC (Aspergillus niger [20]) was 755 µM (≈ 145 µg/mL) and the MIC (Aspergillus ochraceus [21]) was 755 µM (≈ 145 µg/mL). For the same compound, the MIC (Fusarium oxysporum [22]) was 755 µM (≈ 145 µg/mL).
Work on `COc1ccc(/C=C/C(C)=O)cc1OC` yielded an IC50 (Raji [10]) of 107 molar ratio and an IC50 [11] of 20000 µM.
VITAMIN E gave an IC50 (Brain) of 2.5 µM and an IC0.2 [1] of 8.3 µM.
For `COc1ccc(/C=C/C(=O)/C=C/c2nc3cc(O)ccc3n2C)cc1O`, the “Ratio IC50” value (OVCAR-8) was 1.4.
In the case of `COc1cccc(/C=C/C(C)=O)c1OCC=C(C)C`, the “inhibition (INH)” value (Raji [23]) is reported as 80%.
Work on `Cc1c(C)c2c(c(C)c1O)CCC(C)(C(=O)O)O2` (stereo not drawn) [TROLOX] yielded an IC50 [11] of 260 µM.
In the case of `COc1cc(/C=C/C(=O)/C=C/c2nc3cc(C)ccc3n2C)ccc1O`, the “Ratio IC50” value (OVCAR-8) is reported as 1.7.
Work on `COc1cc(/C=C/C(C)=O)ccc1OC(C)=O` yielded an IC50 [11] of 40000 µM.
For `CC(=O)/C=C/c1cccc(O)c1O`, the IC50 (Brain; Rattus norvegicus, Wistar, Brain) was 6.3 µM, the IC0.2 [1] was 3.2 µM and the Ratio [24] was 2.
In the case of `CCCCC/C=C/C(=O)/C=C/c1ccc(O)c(OC)c1`, the EC50 (Spilarctia obliqua) is reported as 3550 µg/mL (≈ 12.9 mM).
In the case of `CC(=O)CCc1ccccc1` [BENZYLACETONE], the IC50 (Raji [10]) is reported as 222 molar ratio.
In the case of `COc1cc(/C=C/C(C)=O)ccc1OC1OC(COC(C)=O)C(OC(C)=O)C(OC(C)=O)C1OC(C)=O` (stereo not drawn), the IC50 [11] is reported as 10000 µM.
With `COc1cc(/C=C/C(=O)CC(=O)C(C)c2ccc(CC(C)C)cc2)ccc1O` (stereo not drawn) the “inhibition (INH)” value (Rattus norvegicus) was 76% and the inhibition in vivo at 1000 µmol/kg (Mus musculus) was 59%.
In the case of `COc1cc(/C=C/C(=O)CC(=O)/C=C/c2ccc(O)c(OC)c2)ccc1O` [CURCUMIN], the IC50 (Raji [10]) is reported as 97 molar ratio.
In the case of `COc1ccc(/C=C/C(C)=O)cc1OCC=C(C)C`, the “inhibition (INH)” value (Raji [25]) is reported as 35%.
For `CC(C)Cc1ccc(C(C)C(=O)O)cc1` (stereo not drawn) [IBUPROFEN], the “inhibition (INH)” value (Rattus norvegicus) was 73% and the inhibition in vivo at 1000 µmol/kg (Mus musculus) was 69%.
`CC(=O)/C=C/c1cc(O)ccc1O` showed an IC0.2 [1] of 4.9 µM and a Ratio [26] of 5.
With `COc1ccc(/C=C/C(C)=O)c(OCC=C(C)C)c1` the “inhibition (INH)” value (Raji [27]) was 11%.
With `COc1cc(/C=C/C(=O)/C=C/c2ccc3c(c2)C(=O)N(C2CCC(=O)NC2=O)C3=O)ccc1O` (stereo not drawn) the inhibition of growth at 10 µM [6] was ≥ 90%, the inhibition of growth at 10 µM [7] was ≥ 90% and the inhibition of growth at 10 µM [8] was ≥ 90%.
Compound `CC(=O)C#Cc1ccccc1` [4-PHENYL-3-BUTYN-2-ONE] has an IC50 (Raji [10]) of 48 molar ratio.
`COc1cc(/C=C/C(C)=O)ccc1OC1OC(CO)C(O)C(O)C1O` (stereo not drawn) gave an IC50 [11] of 7500 µM.
`COc1cc(C(CC(C)=O)Sc2ccccc2)ccc1O` (stereo not drawn) showed an IC50 [3] of 6.5 µM.
With `COc1cccc(/C=C/C(C)=O)c1O` the IC50 (Raji [10]) was 50 molar ratio.
